Data on 4 molecules can be found in patent publication US4337256A, “1-Phenyl isoquinoline-5-acetic acid compounds and analgesic compositions thereof” (priority 1978, dated 1982).

Where two headings read alike, the source gives them in different places.

Data set [1] relates to platelet aggregation. Kind of data set: Activity of inhibiting platelet aggregation (collagen-induced). It is filed as cell-based, male Hartley guinea pig. As to conditions: Cavia porcellus, 2 min, read-out: ED50 (inhibition of platelet aggregation). As for the experimental part:
The citrated blood was centrifuged at a speed of 1,000 rpm for 10 minutes. The supernatant was collected to obtain a platelet-rich plasma. Separately, it was contrifuged at a speed of 3,000 rpm for 15 minutes, and the supernatant was collected to obtain a platelet-poor plasma. […] The platelet-rich plasma (250 μl) was placed in a cuvet, and preliminarily heated at 37° C. for 2 minutes, and then while stirring at a speed of 1,000 rpm, 31 μl of a test solution was added. The mixture was incubated for 2 minutes with stirring, and then 31 μl of a collagen solution was added, and the maximum aggregation rate of platelet was measured. The amount of the collagen applied was adjusted to the minimum effective amount which induced irreversible platelet aggregation. This amount was determined for each experiment. The percent inhibition of the test solution-applied group was determined in accordance with the following equation. From the percent inhibition, the ED50 value of the test compounds was calculated in accordance with the Litchfield-Wilcoxon method. Each test compound was dissolved in distilled water as a sodium salt.

For data set [2], the system named is digestive organs. As to conditions: known agents, statement in words; cited from earlier work.
The test system of data set [3] is writhings (acetic acid) in the mice. Kind of data set: Analgesic activity: acetic acid writhing test. The class given is in vivo, male mice (ddY). As to conditions: Mus musculus, po; p.o. 1 h before 0.6% acetic acid i.p.; parentheses show 95% confidence limits; read-out: ED50 (analgesic, writhing inhibition). As for the experimental part: Male mice (ddY) weighing 18 to 22 g were used in groups each consisting of 10 mice. Each of the compounds was suspended in an aqueous solution of 0.5% of carboxymethyl cellulose and 2.0% of Tween 80, and administered orally through a tube. After one hour from the administration, 0.6% acetic acid was administered intraperitoneally in an amount of 0.1 ml per 10 g of body weight, and the number of writhings which occurred in the mice during a period of 20 minutes after the administration was measured. The percent inhibition was calculated from the following equation, and the ED50 values of the test compounds were calculated from the percent inhibition in accordance with the method of Litchfield-Wilcoxon.

The target of data set [4] is T1, microsomes of bovine seminal vesicle (a prostaglandin synthesizing enzyme) (Bos taurus, UniProt O62664).
T1 construct: a microsome fraction prepared from bovine seminal vesicle; from tissue; host or cells: bovine seminal vesicle, lyophilized microsome fraction
T1 sequence (O62664 25-600): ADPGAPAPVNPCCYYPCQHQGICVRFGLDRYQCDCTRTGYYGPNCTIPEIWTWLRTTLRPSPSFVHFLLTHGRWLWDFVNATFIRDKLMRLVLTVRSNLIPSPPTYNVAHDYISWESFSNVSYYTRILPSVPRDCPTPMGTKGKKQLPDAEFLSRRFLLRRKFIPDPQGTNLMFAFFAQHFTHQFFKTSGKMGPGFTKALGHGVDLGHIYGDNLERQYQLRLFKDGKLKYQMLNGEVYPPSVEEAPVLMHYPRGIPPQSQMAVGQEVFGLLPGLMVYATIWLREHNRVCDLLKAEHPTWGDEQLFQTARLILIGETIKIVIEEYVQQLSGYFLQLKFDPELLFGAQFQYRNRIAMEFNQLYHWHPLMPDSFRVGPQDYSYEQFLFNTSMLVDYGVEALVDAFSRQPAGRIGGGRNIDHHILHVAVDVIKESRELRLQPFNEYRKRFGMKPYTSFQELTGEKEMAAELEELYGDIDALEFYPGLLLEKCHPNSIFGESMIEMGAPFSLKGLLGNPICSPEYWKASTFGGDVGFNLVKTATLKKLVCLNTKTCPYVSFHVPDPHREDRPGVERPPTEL
The data set is described as follows: Activity of inhibiting prostaglandin synthesis (prostaglandin E2 formed). The class given is biochemical. To be noted: 37° C., 5 minutes, pH 8.0, 50 μM arachidonic acid; dissolved as a sodium salt; read-out: ED50 (inhibition of prostaglandin synthesis). As for the experimental part: The activity of inhibiting prostaglandin synthesis was measured by adding a test compound, i.e. a substance having the activity of inhibiting prostaglandin synthesis, to a prostaglandin synthesizing reaction system shown below, and quantitatively determining to what extent synthesis of prostaglandin was inhibited.
100 mM tris-HCl buffer (pH=8.0),
0.0125 μCi/ml (14c)-arachidonic acid,
1 mg/ml, as protein, of microsomes of bovine seminal vesicle (a prostaglandin synthesizing enzyme obtained by lyophylizing a microsome fraction prepared from bovine seminal vesicle).
The test compound was added to the reaction system to adjust the total amount to 1 ml. As a control, 1 ml of the above reaction system without addition of the test compound was provided. Each of these was incubated with shaking at 37° C. for 5 minutes, and 0.5 ml of 0.3 M citric acid was added to stop the reaction. The prostaglandin formed was extracted with ethyl acetate, fractionated by thin-layer chromatography. The radioactivity of each fraction was measured by a liquid scintillation counter. The amount of prostaglandin E2 formed in the group to which the test compound had been applied was measured, and the percent inhibition was calculated in accordance with the following equation. From the percent inhibition, the ED50 value of the test compounds was calculated in accordance with the Litchfield-Wilcoxon method. […]

The conditions of data set [5]: reported in J. Med. Chem. 1978, 21, 582-585; cited from earlier work.
Data set [6] relates to left hind paw edema (carrageenin). The data set is described as follows: Anti-inflammatory activity: carrageenin-induced left hind paw edema. The class given is in vivo, male Wistar rats. To be noted: Rattus norvegicus, po, p.o., 1 h before carrageenin, measured 3 h later, read-out: Percent inhibition (edema). As for the experimental part: Male Wistar rats weighing 120 to 150 g which had been fasted for 24 hours were used in groups each consisting of 5 rats. In each group, the volumes of the left hind paw were measured by a volume differential meter (made by Ugo Basile Company), and each of the test compounds was suspended in an aqueous solution of 0.5% of carboxymethyl cellulose and 2.0% of Tween 80, and administered orally through a tube. After one hour from the administration, 0.1 ml of a 1% suspension of carrageenin in distilled water was subcutaneously injected into the plantar tissues of the left hind paw. Three hours later, the volumes of the left hind paw were again measured. The increase in volume of the left hind paw of each rat in each group (the volume of edema) was measured.

In data set [7] the test system is stomach mucosal membrane. Kind of data set: Ulcerogenic activity: gastric ulceration. The class given is in vivo, male Wistar rats. As to conditions: p.o., 4 h. Here is the method: Each of the test compounds was orally administered by the same way as in the test on anti-inflammatory activity to male Wistar rats weighing 120 to 150 g which had been fasted for 24 hours. Four hours later, they were killed with ether.

Data set [8] is described as follows: Toxicity test (LD50). As to conditions: mouse, in vivo; oral, observed for 1 week; parentheses show 95% confidence limits. Here is the method:
Each of the test compounds was suspended in a physiological saline solution having dissolved therein 2% of Tween 80, and orally administered through a tube to groups of ddY mice (male: 19 to 22 g) each group consisting of 6 mice. The mice were then observed for 1 week. The LD50 values were calculated from the lethality in accordance with the method of Litchfield-Wilcoxon.

Regarding `CC(=O)Oc1ccccc1C(=O)O` [Aspirin, reference compound], in data set [1] (Platelet), the IC50 turned out to be 15.8 µM. Moreover, in data set [2], the “troubles in the digestive organs” value is listed as “fairly heavy troubles in the digestive organs”.

In the case of `CCCCC1C(=O)N(c2ccccc2)N(c2ccccc2)C1=O` [Phenylbutazone, reference compound], in data set [3], the 50% effective dose (ED50) came to 109 mg/kg. The IC50 in data set [4] came to 26.1 µM. For the same molecule, the “troubles in the digestive organs” value in data set [2] is reported as “fairly heavy troubles in the digestive organs”.

Take `NC(=O)Cc1cc2ccccc2c(-c2ccc(Cl)cc2)n1` [1-(4-chlorophenyl)-3-carbamoylmethyl isoquinoline]: the “anti-inflammatory and analgesic activities” value in data set [5] is “has anti-inflammatory and analgesic activities”.

For `O=C(O)Cc1cccc2c(-c3ccc(Cl)cc3)nccc12` [A, 1-(4-chlorophenyl)isoquinoline-5-acetic acid], in data set [6] (0.3 mg/kg), the inhibition in vivo at 0.3 mg/kg was 22.7 ± 6.1%. In data set [6] (1 mg/kg), the inhibition in vivo at 1 mg/kg was determined as 27.3 ± 7.4%. The inhibition in vivo at 3 mg/kg in data set [6] (3 mg/kg) was 44.6 ± 5.8%. In data set [3], the ED50 worked out at 1.4 mg/kg. Also, the “Gastric ulceration: bleeding at the mucosal membrane” value in data set [7] (10 mg/kg) is given as 0/10; in data set [7] (30 mg/kg), 0/5. Moreover, the results for the “Gastric ulceration: damage beneath the mucosal membrane” value in data set [7] (10 mg/kg) and in data set [7] (30 mg/kg) were 0/10 and 0/5, respectively. The IC50 in data set [4] was found to be 0.82 µM; in data set [1] (collagen-induced, platelet-rich plasma, dissolved as a sodium salt, parentheses show 95% confidence limits), 1.9 µM. Further, the LD50 at 168 h in data set [8] stood at 182 mg/kg.
